Assay results: ChEMBL document CHEMBL5579829, “Discovery of a potent CDKs/FLT3 PROTAC with enhanced differentiation and proliferation inhibition for AML” (Eur J Med Chem, 2024)

Legend:
[1] = target: T1, Protein cereblon/Cyclin-dependent kinase 2 (Homo sapiens, UniProt P24941+Q96SW2); assay: Protac activity at CRBN/CDK2 in human HL-60 cells assessed as induction of CDK2 degradation by Western blot analysis; assay type: cell-based
[2] = target: T1, Protein cereblon/Cyclin-dependent kinase 2; assay: Protac activity at CRBN/CDK2 in human HL-60 cells assessed as induction of CDK2 degradation by Western blot analysis relative to control; assay type: cell-based
HL-60 [3] = assay: Antiproliferative activity against human HL-60 cells measured after 1 to 3 days by CCK-8 assay; assay type: functional, cell-based
[4] = target: von Hippel-Lindau disease tumor suppressor/Receptor-type tyrosine-protein kinase FLT3 (Homo sapiens, UniProt P36888+P40337); assay: Protac activity at VHL/FLT3-ITD (unknown origin) assessed as induction of FLT3 degradation
von Hippel-Lindau disease tumor suppressor/Receptor-type tyrosine-protein kinase FLT3, sequence (P36888 whole entry, looked up, change not shown): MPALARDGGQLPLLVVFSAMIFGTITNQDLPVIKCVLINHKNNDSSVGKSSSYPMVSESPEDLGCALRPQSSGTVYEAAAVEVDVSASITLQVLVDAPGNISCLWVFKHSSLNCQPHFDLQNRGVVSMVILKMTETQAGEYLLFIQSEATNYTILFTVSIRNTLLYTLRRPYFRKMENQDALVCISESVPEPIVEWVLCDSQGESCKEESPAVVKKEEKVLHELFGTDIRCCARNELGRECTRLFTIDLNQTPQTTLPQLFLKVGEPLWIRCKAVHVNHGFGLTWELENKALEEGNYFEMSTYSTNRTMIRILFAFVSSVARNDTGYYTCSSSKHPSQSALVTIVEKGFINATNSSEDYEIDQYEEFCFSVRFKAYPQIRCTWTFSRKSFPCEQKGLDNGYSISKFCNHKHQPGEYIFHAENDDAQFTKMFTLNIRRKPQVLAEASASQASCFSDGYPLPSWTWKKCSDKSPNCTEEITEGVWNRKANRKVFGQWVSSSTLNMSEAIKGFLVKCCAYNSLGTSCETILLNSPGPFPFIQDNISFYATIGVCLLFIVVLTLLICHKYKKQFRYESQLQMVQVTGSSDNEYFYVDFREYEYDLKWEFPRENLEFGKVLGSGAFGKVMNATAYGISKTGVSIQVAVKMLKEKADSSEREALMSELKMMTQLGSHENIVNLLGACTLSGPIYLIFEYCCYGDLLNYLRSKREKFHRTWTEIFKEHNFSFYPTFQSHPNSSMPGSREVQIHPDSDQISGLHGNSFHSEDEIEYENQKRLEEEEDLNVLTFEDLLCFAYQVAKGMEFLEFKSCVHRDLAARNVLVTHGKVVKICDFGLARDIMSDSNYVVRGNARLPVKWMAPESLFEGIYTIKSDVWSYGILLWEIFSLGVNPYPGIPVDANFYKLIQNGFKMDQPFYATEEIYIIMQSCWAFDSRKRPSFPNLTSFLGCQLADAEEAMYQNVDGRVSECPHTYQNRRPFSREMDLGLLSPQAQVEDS
von Hippel-Lindau disease tumor suppressor/Receptor-type tyrosine-protein kinase FLT3, sequence (P40337 whole entry, looked up, change not shown): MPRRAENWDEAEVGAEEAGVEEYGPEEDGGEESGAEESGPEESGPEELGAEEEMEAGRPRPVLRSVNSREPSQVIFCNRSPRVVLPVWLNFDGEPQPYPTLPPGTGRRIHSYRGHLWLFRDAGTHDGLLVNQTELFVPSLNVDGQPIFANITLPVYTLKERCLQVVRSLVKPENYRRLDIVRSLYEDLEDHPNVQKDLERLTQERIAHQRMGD

[5] = target: T1, Protein cereblon/Cyclin-dependent kinase 2; assay: Protac activity at CRBN/CDK2 in human OVCAR-8 cells assessed as induction of CDK2 degradation measured after 6 hrs by Western blot analysis; assay type: cell-based
[6] = target: Protein cereblon/Cyclin-dependent kinase 9 (Homo sapiens, UniProt P50750+Q96SW2); assay: Protac activity at CRBN/CDK9 in human OVCAR-8 cells assessed as induction of CDK9 degradation measured after 6 hrs by Western blot analysis; assay type: cell-based
Protein cereblon/Cyclin-dependent kinase 9, sequence (P50750 whole entry): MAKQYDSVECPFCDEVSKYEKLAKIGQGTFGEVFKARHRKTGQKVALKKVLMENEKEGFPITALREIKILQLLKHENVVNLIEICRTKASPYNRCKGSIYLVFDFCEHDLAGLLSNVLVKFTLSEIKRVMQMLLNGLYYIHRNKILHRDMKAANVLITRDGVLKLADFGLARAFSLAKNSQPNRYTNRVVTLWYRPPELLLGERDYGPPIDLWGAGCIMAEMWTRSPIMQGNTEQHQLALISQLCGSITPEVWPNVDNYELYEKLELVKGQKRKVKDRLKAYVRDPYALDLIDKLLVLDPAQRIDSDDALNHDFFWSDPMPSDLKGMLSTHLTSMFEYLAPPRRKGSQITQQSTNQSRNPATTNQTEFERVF
Protein cereblon/Cyclin-dependent kinase 9, sequence (Q96SW2 whole entry): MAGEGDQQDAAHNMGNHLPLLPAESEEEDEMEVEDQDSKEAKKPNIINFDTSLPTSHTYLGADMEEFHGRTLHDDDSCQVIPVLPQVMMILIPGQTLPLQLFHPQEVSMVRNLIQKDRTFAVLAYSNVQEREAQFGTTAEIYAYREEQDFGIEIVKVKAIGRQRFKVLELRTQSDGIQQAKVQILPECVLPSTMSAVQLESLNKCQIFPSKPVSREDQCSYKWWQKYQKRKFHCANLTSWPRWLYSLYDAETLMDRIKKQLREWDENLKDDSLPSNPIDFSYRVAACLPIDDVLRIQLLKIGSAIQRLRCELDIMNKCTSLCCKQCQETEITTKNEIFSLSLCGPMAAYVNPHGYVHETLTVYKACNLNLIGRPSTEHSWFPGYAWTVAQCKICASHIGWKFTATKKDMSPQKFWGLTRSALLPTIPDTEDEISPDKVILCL

[7] = target: Protein cereblon/Cyclin-dependent kinase 4 (Homo sapiens, UniProt P11802+Q96SW2); assay: Protac activity at CRBN/CDK4 in human MDA-MB-231 cells assessed as induction of CDK4 degradation measured after 18 hrs by Western blot analysis; assay type: cell-based
Protein cereblon/Cyclin-dependent kinase 4, sequence (P11802 whole entry): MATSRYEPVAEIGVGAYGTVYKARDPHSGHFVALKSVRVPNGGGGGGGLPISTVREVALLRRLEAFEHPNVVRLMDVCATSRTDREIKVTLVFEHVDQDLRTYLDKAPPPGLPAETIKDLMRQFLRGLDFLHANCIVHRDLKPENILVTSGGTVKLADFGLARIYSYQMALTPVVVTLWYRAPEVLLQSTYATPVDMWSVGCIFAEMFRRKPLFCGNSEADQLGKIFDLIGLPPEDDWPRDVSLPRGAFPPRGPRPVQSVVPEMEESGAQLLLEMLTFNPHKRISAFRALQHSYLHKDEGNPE
Protein cereblon/Cyclin-dependent kinase 4, sequence (Q96SW2 whole entry): as the sequence (Q96SW2 whole entry) above

[8] = target: Protein cereblon/Cyclin-dependent kinase 6 (Homo sapiens, UniProt Q00534+Q96SW2); assay: Protac activity at CRBN/CDK6 in human MDA-MB-231 cells assessed as induction of CDK6 degradation measured after 18 hrs by Western blot analysis; assay type: cell-based
Protein cereblon/Cyclin-dependent kinase 6, sequence (Q00534 whole entry): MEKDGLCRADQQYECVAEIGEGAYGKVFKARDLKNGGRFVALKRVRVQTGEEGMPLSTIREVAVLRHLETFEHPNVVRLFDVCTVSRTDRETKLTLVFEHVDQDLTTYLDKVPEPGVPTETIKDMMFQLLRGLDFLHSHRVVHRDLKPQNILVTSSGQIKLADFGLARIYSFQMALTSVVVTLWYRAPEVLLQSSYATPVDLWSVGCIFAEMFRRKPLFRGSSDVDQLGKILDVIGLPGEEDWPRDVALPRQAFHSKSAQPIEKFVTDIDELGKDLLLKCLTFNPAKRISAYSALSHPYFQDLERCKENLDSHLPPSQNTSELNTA
Protein cereblon/Cyclin-dependent kinase 6, sequence (Q96SW2 whole entry): as the sequence (Q96SW2 whole entry) above

[9] = target: T1, Protein cereblon/Cyclin-dependent kinase 2; assay: Protac activity at CRBN/CDK2 in human Kasumi 1 cells assessed as induction of CDK2 degradation measured after 48 hrs by Western blot analysis; assay type: cell-based
HL-60 [10] = assay: Induction of pro-differentiation of human HL-60 cells assessed as CD11b expression at 500 nM measured after 3 days by immunostaining-based flow cytometry (reference value: 8.32 to 10.55%); assay type: functional; settings: time 3 day
HL-60 [11] = assay: Induction of pro-differentiation of human HL-60 cells assessed as CD11b expression at 500 nM measured after 5 days by immunostaining-based flow cytometry (reference value: 10.08 to 10.33%); assay type: functional; settings: time 5 day

In the case of `O=C1CCC(N2C(=O)c3ccc(N4CC(N5CCC(NC(=O)c6n[nH]cc6NC(=O)c6c(Cl)cccc6Cl)CC5)C4)cc3C2=O)C(=O)N1` (stereo not drawn), the DC50 [1] is reported as 26.1 nM, the Emax [2] is reported as 72.8% and the IC50 (HL-60 [3]) is reported as 17.8 nM.
`CCc1nc(C(N)=O)c(Nc2ccc(N3CCN(CCC4CCN(CC(=O)N[C@H](C(=O)N5C[C@H](O)C[C@H]5C(=O)N[C@@H](C)c5ccc(-c6scnc6C)cc5)C(C)(C)C)CC4)CC3)c(OC)c2)nc1NC1CCOCC1` showed a DC50 [4] of 7.62 nM.
For `O=C1CCC(N2C(=O)c3ccc(N4CCC(C(=O)N5CCC(NC(=O)c6n[nH]cc6NC(=O)c6c(Cl)cccc6Cl)CC5)CC4)cc3C2=O)C(=O)N1` (stereo not drawn), the DC50 [1] was 93.3 nM and the Emax [2] was 59.3%.
`O=C1CCC(N2C(=O)c3ccc(N4CC(CN5CCN(Cc6ccc(NC(=O)c7n[nH]cc7Nc7ncnc8[nH]ccc78)cc6)CC5)C4)cc3C2=O)C(=O)N1` (stereo not drawn) was tested, and the DC50 [1] was 1.23 nM, the Emax [2] was 58.8% and the IC50 (HL-60 [3]) was 13.4 nM.
In the case of `O=C1CCC(N2C(=O)c3ccc(N4CCC(C(=O)N5CCC(N6CCC(NC(=O)c7n[nH]cc7NC(=O)c7c(Cl)cccc7Cl)CC6)CC5)CC4)cc3C2=O)C(=O)N1` (stereo not drawn), the DC50 [1] is reported as greater than 100 nM.
Compound `O=C1CCC(N2C(=O)c3ccc(N4CCC(CN5CCC(CN6CCC(NC(=O)c7n[nH]cc7NC(=O)c7c(Cl)cccc7Cl)CC6)CC5)CC4)cc3C2=O)C(=O)N1` (stereo not drawn) has a DC50 [1] greater than 100 nM and an Emax [2] of 31.8%.
With `O=C1CCC(N2C(=O)c3ccc(N4CCC(CCN5CCC(NC(=O)c6n[nH]cc6NC(=O)c6c(Cl)cccc6Cl)CC5)CC4)cc3C2=O)C(=O)N1` (stereo not drawn) the DC50 [1] was 26.5 nM, the Emax [2] was 54.9% and the IC50 (HL-60 [3]) was 24.1 nM.
`O=C1CCC(N2C(=O)c3ccc(N4CCC(CN5CCC(N6CCC(NC(=O)c7n[nH]cc7NC(=O)c7c(Cl)cccc7Cl)CC6)CC5)C4)cc3C2=O)C(=O)N1` (stereo not drawn) showed a DC50 [1] greater than 100 nM and an Emax [2] of 28.9%.
`O=C(CCC(=O)N1CCN(Cc2ccc(NC(=O)c3n[nH]cc3Nc3ncnc4[nH]ccc34)cc2)CC1)NCCNc1cccc2c1C(=O)N(C1CCC(=O)NC1=O)C2=O` (stereo not drawn) was tested, and the DC50 [5] was 62 nM and the DC50 [6] was 33 nM.
Work on `O=C1CCC(N2C(=O)c3ccc(N4CCC(C(=O)N5CCN(Cc6ccc(NC(=O)c7n[nH]cc7Nc7ncnc8[nH]ccc78)cc6)CC5)CC4)cc3C2=O)C(=O)N1` (stereo not drawn) yielded a DC50 [1] greater than 100 nM and an Emax [2] of 47.9%.
With `O=C1CCC(N2C(=O)c3ccc(N4CCC(CN5CCC(CCN6CCC(NC(=O)c7n[nH]cc7NC(=O)c7c(Cl)cccc7Cl)CC6)CC5)CC4)cc3C2=O)C(=O)N1` (stereo not drawn) the DC50 [1] was greater than 100 nM and the Emax [2] was 43.5%.
`O=C1CCC(N2C(=O)c3ccc(N4CCC(CN5CCC(CCN6CCC(NC(=O)c7n[nH]cc7NC(=O)c7c(Cl)cccc7Cl)CC6)CC5)C4)cc3C2=O)C(=O)N1` (stereo not drawn) showed a DC50 [1] greater than 100 nM and an Emax [2] of 38.9%.
Compound `O=C1CCC(N2C(=O)c3ccc(N4CC(CN5CCC(N6CCC(NC(=O)c7n[nH]cc7NC(=O)c7c(Cl)cccc7Cl)CC6)CC5)C4)cc3C2=O)C(=O)N1` (stereo not drawn) has a DC50 [1] greater than 100 nM and an Emax [2] of 43.3%.
With `O=C1CCC(N2C(=O)c3ccc(N4CCC(CN5CCC(NC(=O)c6n[nH]cc6NC(=O)c6c(Cl)cccc6Cl)CC5)C4)cc3C2=O)C(=O)N1` (stereo not drawn) the DC50 [1] was 4.71 nM, the Emax [2] was 67.3% and the IC50 (HL-60 [3]) was 40.8 nM.
Compound `O=C1CCC(N2C(=O)c3ccc(N4CCC(N5CCC(NC(=O)c6n[nH]cc6NC(=O)c6c(Cl)cccc6Cl)CC5)CC4)cc3C2=O)C(=O)N1` (stereo not drawn) has a DC50 [1] of 2.8 nM, an Emax [2] of 79.2% and an IC50 (HL-60 [3]) of 24.4 nM.
For `O=C1CCC(N2C(=O)c3ccc(N4CCC(CN5CCC(N6CCC(NC(=O)c7n[nH]cc7NC(=O)c7c(Cl)cccc7Cl)CC6)CC5)CC4)cc3C2=O)C(=O)N1` (stereo not drawn), the DC50 [1] was greater than 100 nM.
For `O=C1CCC(N2C(=O)c3ccc(N4CCC(CN5CCC(CN6CCC(NC(=O)c7n[nH]cc7NC(=O)c7c(Cl)cccc7Cl)CC6)CC5)C4)cc3C2=O)C(=O)N1` (stereo not drawn), the DC50 [1] was greater than 100 nM.
With `O=C1CCC(N2C(=O)c3ccc(N4CC(C(=O)N5CCC(NC(=O)c6n[nH]cc6NC(=O)c6c(Cl)cccc6Cl)CC5)C4)cc3C2=O)C(=O)N1` (stereo not drawn) the DC50 [1] was greater than 100 nM and the Emax [2] was 34.2%.
`CC(=O)c1c(C)c2cnc(Nc3ccc(N4CCN(Cc5cn(CCCCCC(=O)Nc6cccc7c6C(=O)N(C6CCC(=O)NC6=O)C7=O)nn5)CC4)cn3)nc2n(C2CCCC2)c1=O` (stereo not drawn) gave a DC50 [7] of 12.9 nM and a DC50 [8] of 34.1 nM.
With `O=C1CCC(N2C(=O)c3ccc(N4CC(CN5CCC(CN6CCC(NC(=O)c7n[nH]cc7NC(=O)c7c(Cl)cccc7Cl)CC6)CC5)C4)cc3C2=O)C(=O)N1` (stereo not drawn) the DC50 [1] was greater than 100 nM and the Emax [2] was 9.07%.
Compound `O=C1CCC(N2C(=O)c3ccc(N4CCC(CN5CCC(NC(=O)c6n[nH]cc6NC(=O)c6c(Cl)cccc6Cl)CC5)CC4)cc3C2=O)C(=O)N1` (stereo not drawn) has a DC50 [1] of 1.17 nM, an Emax [2] of 75.8% and an IC50 (HL-60 [3]) of 44.6 nM.
With `O=C1CCC(N2C(=O)c3ccc(N4CCC(CN5CCN(Cc6ccc(NC(=O)c7n[nH]cc7Nc7ncnc8[nH]ccc78)cc6)CC5)C4)cc3C2=O)C(=O)N1` (stereo not drawn) the DC50 [1] was 1.63 nM, the Emax [2] was 76.1% and the IC50 (HL-60 [3]) was 11.7 nM.
`CN1CCN(Cc2ccc(NC(=O)c3n[nH]cc3Nc3ncnc4[nH]ccc34)cc2)CC1` gave an IC50 (HL-60 [3]) of 89.3 nM.
Compound `O=C1CCC(N2C(=O)c3ccc(N4CC(CN5CCC(CCN6CCC(NC(=O)c7n[nH]cc7NC(=O)c7c(Cl)cccc7Cl)CC6)CC5)C4)cc3C2=O)C(=O)N1` (stereo not drawn) has a DC50 [1] of 11.2 nM, an Emax [2] of 65.8% and an IC50 (HL-60 [3]) of 11.5 nM.
`O=C1CCC(N2C(=O)c3ccc(N4CCC(N5CCC(NC(=O)c6n[nH]cc6NC(=O)c6c(Cl)cccc6Cl)CC5)C4)cc3C2=O)C(=O)N1` (stereo not drawn) was tested, and the DC50 [1] was 7.13 nM, the Emax [2] was 59.1% and the IC50 (HL-60 [3]) was 14 nM.
`O=C1CCC(N2C(=O)c3ccc(N4CC(CN5CCC(NC(=O)c6n[nH]cc6NC(=O)c6c(Cl)cccc6Cl)CC5)C4)cc3C2=O)C(=O)N1` (stereo not drawn) showed a DC50 [1] of 13 nM, an Emax [2] of 63.2% and an IC50 (HL-60 [3]) of 20.4 nM.
`O=C1CCC(N2C(=O)c3ccc(N4CC(C(=O)N5CCC(N6CCC(NC(=O)c7n[nH]cc7NC(=O)c7c(Cl)cccc7Cl)CC6)CC5)C4)cc3C2=O)C(=O)N1` (stereo not drawn) was tested, and the DC50 [1] was greater than 100 nM.
`Cc1ccsc1C(=O)n1nc(Nc2ccc(S(=O)(=O)NCCOCc3cn(CCOCCOCCNc4cccc5c4C(=O)N(C4CCC(=O)NC4=O)C5=O)nn3)cc2)nc1N` (stereo not drawn) was tested, and the DC50 [9] was 61 nM, the IC50 (HL-60 [3]) was greater than 1000 nM and the Activity (HL-60 [10]) was 26.84%. For the same compound, the Activity (HL-60 [11]) was 34.38%.
Compound `O=C(NC1CCNCC1)c1n[nH]cc1NC(=O)c1c(Cl)cccc1Cl` [AT-7519] has an IC50 (HL-60 [3]) of 135 nM.
